The results in this text go back to patent publication US20250109135A1, “NOVEL ISOINDOLINONE DERIVATIVE COMPOUNDS AS CASPASE INHIBITORS” (INNOVO THERAPEUTICS INC., priority 2022, published 2025).

The target in assay [1] is T1, recombinant human Caspase-1 (Homo sapiens, UniProt P29466).
T1 construct: purchased Enzo life science
T1 sequence (P29466 120-297 limits assumed): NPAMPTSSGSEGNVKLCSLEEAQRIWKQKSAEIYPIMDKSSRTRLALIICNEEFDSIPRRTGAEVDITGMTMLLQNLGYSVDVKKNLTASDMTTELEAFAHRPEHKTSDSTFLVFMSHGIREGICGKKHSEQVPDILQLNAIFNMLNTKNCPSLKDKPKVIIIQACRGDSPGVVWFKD
T1 sequence (P29466 317-404 limits assumed): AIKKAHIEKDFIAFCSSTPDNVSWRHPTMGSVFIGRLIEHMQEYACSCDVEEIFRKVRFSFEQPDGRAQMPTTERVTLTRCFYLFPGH
In words: Caspase-1 inhibitory activity, fluorescent substrate Ac-YVAD-AFC. Format: biochemical. As for the experimental part: To determine the Caspase-1 inhibitory activity of the compounds of the present invention prepared in Example, Caspase-1 activity was measured using a substrate with a fluorescent dye attached to it. […] The compound was dissolved in DMSO and stored at −20° C. Enzymatic reactions were carried out in a buffer comprising 50 mM HEPES (pH 8.0), 50 mM KCl, 200 mM NaCl, 10 mM DTT, 0.1% CHAPS (w/v). Enzyme inactivation was measured in the presence of different concentrations of the compound using the fluorescent substrate N-Acetyl-Tyr-Val-Ala-Asp-7-amido-4-trifluoromethylcoumarin (Ac-YVAD-AFC) (Sigma) at a concentration of 50 μM and 1 unit of recombinant human Caspase-1 (Enzo life science). A CLARIOstar Plus spectrometer (BMG Labtech) was used to measure the reaction rate as a function of time in the 400/505 nm (Ex/Em) wavelength band. […] If kobs/[I] is 20 or more, it is denoted as A, if it is 10 or more but less than 20, it is denoted as B, if it is 1 or more but less than 10, it is denoted as C, and if it is less than 1, it is denoted as D.
In the above equation, At means the enzyme reaction rate at time t (min), and Amax means the maximum reaction rate.

Assay [2] has as its system Secreted IL-1β in THP-1 cells. As to the kind of experiment: Interleukin-1β inhibitory activity in human monocytic cells THP-1 (ELISA). Format: cell-based. Conditions: compound 100 nM, PMA-differentiated THP-1, LPS 10 μg/ml then 5 mM ATP, 24 h. The protocol:
Caspase-1 is known as […] (ICE). Activated Caspase-1 is involved in the cleavage of pro-form IL-1β to produce the mature form, which is then secreted to induce inflammation. Therefore, the compounds identified in Experimental example 1 were tested to determine if their Caspase-1 inhibitory activity affected the production of […].
THP-1 (ATCC) cells were cultured in RPMI 1640 (Hyclone) growth medium comprising 10% Fetal bovine serum (FBS, Gibco) and antibiotics (100 U/ml Penicillin, 0.1 mg/ml Streptomycin, Cytiva) under 37° C., 5% CO2 conditions. Cultured THP-1 cells were seeded in growth medium to a concentration of 3×10^5 cells/well in 24-well plates (Celvest) and then treated with 1 μM Phorbol 12-myristate 13-acetate (PMA) (Sigma) for 24 hours to induce differentiation. Differentiated THP-1 were pre treated with 10 μg/ml Lipopolysaccharide (LPS, from E. coli 0111:B4 (InvivoGen)) in serum free RPMI 1640 medium for 24 hours to induce an inflammatory response. After removal of LPS, the compounds were pretreated for 1 h at a concentration of 100 nM using the same medium, followed by the addition of 5 mM ATP (InvivoGen) and incubation for 24 h in an incubator. The treated medium was collected and centrifuged, and IL-1β was quantified using an Enzyme linked immunoassay kit (ELISA kit, R&D system), and absorbance was measured at 450 nm using a CLARIOstar Plus spectrometer. Inhibitory activity was denoted as a if it was 50% or more, b if it was 30% or more but less than 50%, c if it was 10% or more but less than 30%, and d if it was less than 10%.

Where [3] appears, read: pH 8, 1 unit recombinant human Caspase-1, 50 μM Ac-YVAD-AFC, read-out: kobs/[I] Caspase-1.
Setting [4] is: pH 8, read-out: kobs/[I] Caspase-1.

Molecules are shown by their SMILES. Where two headings read alike, the source gives them in different places.

Usually inhibition stands for the change of the read-out against control, counted positive when it falls. High values mean strong suppression, low ones little suppression. With `CCC(C(=O)NC(CC(=O)O)C(=O)CF)N1Cc2ccc(-c3cnn(C)c3)cc2C1=O` (stereo not shown) [Compound 24, 5-fluoro-3-(2-(6-(1-methyl-1H-pyrazol-4-yl)-1-oxoisoindolin-2-yl)butanamido)-4-oxopentanoic acid], the kinact/KI in assay [1] (setting [3]) fell in the range of 0.0167 to 0.167 M⁻¹ s⁻¹. Also, the inhibition at 0.1 µM in assay [2] lay within 10 to 30%.
In the same order, the values of `CCC(C(=O)NC(CC(=O)O)C(=O)CF)N1Cc2ccc(-c3ccnc(N)c3)cc2C1=O` (stereo not shown) [Compound 23, 3-(2-(6-(2-aminopyridin-4-yl)-1-oxoisoindolin-2-yl)butanamido)-5-fluoro-4-oxopentanoic acid] are 0.0167 to 0.167 M⁻¹ s⁻¹ and < 10%.
Consider `CC[C@@H](C(=O)NC(CC(=O)O)C(=O)CF)N1Cc2cc(N3CCN(c4nsc5ccccc45)CC3)ccc2C1=O` (stereo partly drawn) [Compound 63, 3-((S)-2-(5-(4-(benzo[d]isothiazol-3-yl)piperazin-1-yl)-1-oxoisoindolin-2-yl)butanamido)-5-fluoro-4-oxopentanoic acid], for which the kinact/KI in assay [1] (setting [4]) was < 0.0167 M⁻¹ s⁻¹.
On to `CCC(C(=O)NC(CC(=O)O)C(=O)CF)N1Cc2ccc(-c3ccc(C(F)(F)F)cc3)cc2C1=O` (stereo not shown) [Compound 14, 5-fluoro-4-oxo-3-(2-(1-oxo-6-(4-(trifluoromethyl)phenyl)isoindolin-2-yl)butanamido)pentanoic acid], for which the kinact/KI in assay [1] (setting [3]) lay within 0.0167 to 0.167 M⁻¹ s⁻¹. Besides, the inhibition at 0.1 µM in assay [2] is < 10%.
Consider `CCC(C(=O)NC(CC(=O)O)C(=O)CF)N1Cc2ccc(-c3cccc4ccncc34)cc2C1=O` (stereo not shown) [Compound 35, 5-fluoro-3-(2-(6-(isoquinolin-8-yl)-1-oxoisoindolin-2-yl)butanamido)-4-oxopentanoic acid], for which the kinact/KI in assay [1] (setting [4]) fell in the range of 0.0167 to 0.167 M⁻¹ s⁻¹. In assay [2], the inhibition at 0.1 µM was < 10%.
Consider `CCC(C(=O)NC(CC(=O)O)C(=O)CF)N1Cc2ccc(-c3ccc4scnc4c3)cc2C1=O` (stereo not shown) [Compound 32, 3-(2-(6-(benzo[d]thiazol-5-yl)-1-oxoisoindolin-2-yl)butanamido)-5-fluoro-4-oxopentanoic acid], for which the kinact/KI in assay [1] (setting [3]) was in the range of 0.0167 to 0.167 M⁻¹ s⁻¹. Further, in assay [2], the inhibition at 0.1 µM was < 10%.
In the same order, the values of `CCC(C(=O)NC(CC(=O)O)C(=O)CF)N1Cc2ccc(-c3ccc(C(F)(F)F)nc3)cc2C1=O` (stereo not shown) [Compound 20, 5-fluoro-4-oxo-3-(2-(1-oxo-6-(6-(trifluoromethyl)pyridin-3-yl)isoindolin-2-yl)butanamido)pentanoic acid] are 0.0167 to 0.167 M⁻¹ s⁻¹ and 10 to 30%.
For `CC[C@@H](C(=O)NC(CC(=O)O)C(=O)CF)N1Cc2cc(-c3ccc4occc4c3)ccc2C1=O` (stereo partly drawn) [Compound 60, 3-((S)-2-(5-(benzofuran-5-yl)-1-oxoisoindolin-2-yl)butanamido)-5-fluoro-4-oxopentanoic acid], the kinact/KI in assay [1] (setting [4]) was < 0.0167 M⁻¹ s⁻¹. Further, the inhibition at 0.1 µM in assay [2] is < 10%.
Take `CCC(C(=O)NC(CC(=O)O)C(=O)CF)N1Cc2ccc(C3=CCOCC3)cc2C1=O` (stereo not shown) [Compound 15, 3-(2-(6-(3,6-dihydro-2H-pyran-4-yl)-1-oxoisoindolin-2-yl)butanamido)-5-fluoro-4-oxopentanoic acid]: the kinact/KI in assay [1] (setting [3]) is < 0.0167 M⁻¹ s⁻¹. Moreover, the inhibition at 0.1 µM in assay [2] was < 10%.
In the same order, the values of `CCC(C(=O)NC(CC(=O)O)C(=O)CF)N1Cc2ccc(-c3ccnc4ccccc34)cc2C1=O` (stereo not shown) [Compound 31, 5-fluoro-4-oxo-3-(2-(1-oxo-6-(quinolin-4-yl)isoindolin-2-yl)butanamido)pentanoic acid] are 0.0167 to 0.167 M⁻¹ s⁻¹ and < 10%.
With `CCC(C(=O)NC(CC(=O)O)C(=O)CF)N1Cc2ccc(C3=CCN(S(C)(=O)=O)CC3)cc2C1=O` (stereo not shown) [Compound 7, 5-fluoro-3-(2-(6-(1-(methylsulfonyl)-1,2,3,6-tetrahydropyridin-4-yl)-1-oxoisoindolin-2-yl)butanamido)-4-oxopentanoic acid], the kinact/KI in assay [1] (setting [3]) was 0.0167 to 0.167 M⁻¹ s⁻¹. Also, in assay [2], the inhibition at 0.1 µM is < 10%.
In the same order, the values of `CCC(C(=O)NC(CC(=O)O)C(=O)CF)N1Cc2ccc(-c3cnc(N)nc3)cc2C1=O` (stereo not shown) [Compound 21] are 0.0167 to 0.167 M⁻¹ s⁻¹ and 30 to 50%.
In the case of `CC[C@@H](C(=O)NC(CC(=O)O)C(=O)CF)N1Cc2cc(N3CCCC3)ccc2C1=O` (stereo partly drawn) [Compound 64, 5-fluoro-4-oxo-3-((S)-2-(1-oxo-5-(pyrrolidin-1-yl)isoindolin-2-yl)butanamido)pentanoic acid], in assay [1] (setting [4]), the kinact/KI was < 0.0167 M⁻¹ s⁻¹.
With `C[C@@H](C(=O)NC(CC(=O)O)C(=O)CF)N1Cc2ccc(-c3coc4ccccc34)cc2C1=O` (stereo partly shown) [Compound 49, 3-(2-(6-(benzofuran-3-yl)-1-oxoisoindolin-2-yl)propanamido)-5-fluoro-4-oxopentanoic acid], the kinact/KI in assay [1] (setting [3]) lay in the range of 0.167 to 0.333 M⁻¹ s⁻¹.
`CC(C)[C@@H](C(=O)NC(CC(=O)O)C(=O)CF)N1Cc2ccc(N3CCCC3)cc2C1=O` (stereo partly drawn) [Compound 43, 5-fluoro-3-((S)-3-methyl-2-(1-oxo-6-(pyrrolidin-1-yl)isoindolin-2-yl)butanamido)-4-oxopentanoic acid]: the kinact/KI in assay [1] (setting [4]) was < 0.0167 M⁻¹ s⁻¹. The same molecule registered an inhibition at 0.1 µM in assay [2] of 10 to 30%.
In the same order, the values of `CC[C@@H](C(=O)NC(CC(=O)O)C(=O)CF)N1Cc2cc(-c3csc4ccccc34)ccc2C1=O` (stereo partly drawn) [Compound 59, 3-((S)-2-(5-(benzo[b]thiophen-3-yl)-1-oxoisoindolin-2-yl)butanamido)-5-fluoro-4-oxopentanoic acid] are < 0.0167 M⁻¹ s⁻¹ and < 10%.
Consider `CCC(C(=O)NC(CC(=O)O)C(=O)CF)N1Cc2ccc(-c3cnn4ccccc34)cc2C1=O` (stereo not shown) [Compound 33, 5-fluoro-4-oxo-3-(2-(1-oxo-6-(pyrazolo[1,5-a]pyridin-3-yl)isoindolin-2-yl)butanamido)pentanoic acid], for which, in assay [1] (setting [3]), the kinact/KI lay within 0.0167 to 0.167 M⁻¹ s⁻¹. Moreover, the inhibition at 0.1 µM in assay [2] was < 10%.
In the same order, the values of `CCC(C(=O)NC(CC(=O)O)C(=O)CF)N1Cc2ccc(N3CCN(c4nsc5ccccc45)CC3)cc2C1=O` (stereo not shown) [Compound 19, 3-(2-(6-(4-(benzo[d]isothiazol-3-yl)piperazin-1-yl)-1-oxoisoindolin-2-yl)butanamido)-5-fluoro-4-oxopentanoic acid] are < 0.0167 M⁻¹ s⁻¹ and < 10%.
On to `C[C@@H](C(=O)NC(CC(=O)O)C(=O)CF)N1Cc2ccc(-c3ccc4c(c3)OCCO4)cc2C1=O` (stereo partly shown) [Compound 48, 3-(2-(6-(2,3-dihydrobenzo[b][1,4]dioxin-6-yl)-1-oxoisoindolin-2-yl)propanamido)-5-fluoro-4-oxopentanoic acid], for which the kinact/KI in assay [1] (setting [3]) is < 0.0167 M⁻¹ s⁻¹.
Consider `CC[C@@H](C(=O)NC(CC(=O)O)C(=O)CF)N1Cc2cc(N3CCn4cc(C(F)(F)F)nc4C3)ccc2C1=O` (stereo partly drawn) [Compound 62, 5-fluoro-4-oxo-3-((S)-2-(1-oxo-5-(2-(trifluoromethyl)-5,6-dihydroimidazo[1,2-a]pyrazin-7(8H)-yl)isoindolin-2-yl)butanamido)pentanoic acid], for which the kinact/KI in assay [1] (setting [4]) is < 0.0167 M⁻¹ s⁻¹.
Turning to `C[C@@H](C(=O)NC(CC(=O)O)C(=O)CF)N1Cc2ccc(N3CCCC3)cc2C1=O` (stereo partly shown) [Compound 46, 5-fluoro-4-oxo-3-(2-(1-oxo-6-(pyrrolidin-1-yl)isoindolin-2-yl)propanamido)pentanoic acid], the kinact/KI in assay [1] (setting [4]) was < 0.0167 M⁻¹ s⁻¹.
As for `C[C@@H](C(=O)NC(CC(=O)O)C(=O)CF)N1Cc2ccc(-c3ccc4[nH]c(=O)[nH]c4c3)cc2C1=O` (stereo partly shown) [Compound 47, 5-fluoro-4-oxo-3-(2-(1-oxo-6-(2-oxo-2,3-dihydro-1H-benzo[d]imidazol-5-yl)isoindolin-2-yl)propanamido)pentanoic acid], the kinact/KI in assay [1] (setting [4]) fell in the range of 0.0167 to 0.167 M⁻¹ s⁻¹.
